Assay results published in US8124770B2, “Fluorescent cellular markers” (priority 2009, dated 2012).
Like-named read-outs stand apart in the source and are kept apart here.

Experiments:
Type in all cases: cell-based, human
[1] = tested on: Epidermoid carcinoma A431 cells; assay: Cell cytotoxicity (growth inhibition) of BQS on A431 cells, Trypan Blue Exclusion; conditions: 5 to 100 uM, read-out: IC50 (inhibition of 50% of the cell population)
Description: Regarding the cytotoxicity, in order to determine the cell cytotoxicity of the BQS, duplicates cultures of 5×10^6 cells were seeded in 25 cm^2 flasks. The final volume on each plate was 9 ml of modified RPMI 1640 that contained the cell aliquot, media and BQS of present invention. Cells were then incubated for 4 hours to allow cells to adhere to the flask. Cells were cultured for 48 hours with BQS at concentration ranging from 5 to 100 uM. A negative control treated with ultra pure water (vehicle) was included in each experiment. […] At the end of the exposure period, media was removed and cultures rinsed twice with phosphate buffered saline (PBS) for removal of the compounds in solution. Cells detached with 5% trypsin enzyme, centrifuged, resuspended in fresh media and counted through a cell viability protocol, such as the Trypan Blue Exclusion analysis. Cell survival was calculated and plotted against time with the Microsoft Excel® software.

[2] = tested on: caspases 3 and 7 in A431 cells; assay: Caspases 3 and 7 activation, Magic Red assay, on A431 cells; conditions: 48 hours of exposure, Cisplatin 3 uM positive control
Description: D. et al 2004; Blanc, C. et al 2000) making Cisplatin and Staurosporine appropriate positive controls for this assay. Cell culture media, such as RPMI 1640, modified with additional nutrients and additives such as Fetal Bovine serum and antibiotic has been added to improve the cell replication and prevent bacterial contamination was employed. […] The final volume on each plate was 9 ml of modified RPMI 1640 that contained the cell aliquot, media and drug. […] At the end of the treatment time cells were washed with PBS, detached with 5% trypsin enzyme and centrifuged. Cells were counted and aliquots were stained for an hour with cresyl violet (fluorochrome). […] Apoptotic cells (red) were distinguished from non apoptotic (non-fluorescent) using the negative and positive controls as reference.

[3] = tested on: DNA and mitochondria of A431 tumor cells; assay: Intra cellular binding to organelles, wide-field fluorescence microscopy of A431 tumor cells; conditions: fluorescence microscope (FIG. 11)
[4] = tested on: A431 tumor cells; assay: Auto-fluorescence on A431 tumor cells, inverted fluorescence microscopy; conditions: at IC50 concentration, monitored through 72 hour period, Olympus CKX41
Description: Regarding the autofluorencense, Ellipticine was selected as a fluorescent positive control since it is a structural analog of ABQS's. The elipticine's IC50 dose in A431 was determine by treating A431 cell cultures (in duplicates) at concentrations ranging from 0 to 50 μM. The final volume on each plate was 9 mL of modified RPMI 1640 that contained the cell aliquot, media and drug. Cells were exposed to ABQS's and Ellipticine at their IC50 concentrations, incubated and monitored through a 72 hour period by inverted microscopy. An Olympus CKX41 inverted fluorescent microscope (50 w Hg lamp), with U filter; 40× objective. Photographs were obtained at 13-17 seconds of exposure using the Q Capture Software. Auto-fluorescent cells were distinguished from non-auto-fluorescent ones using the negative and positive controls as reference.

[5] = Homo sapiens, A-431, 48 hours exposure

## 7-Ethyl-3-nitrobenzimidazolo[3,2-a]quinolinium Chloride [NBQ38]
[1]; 48 hours exposure
  IC50: 36 µM
[2]
  Caspases 3 and 7 activation: 22±7%

## CC[n+]1c2ccccc2n2c3ccc(N)cc3ccc21.[Cl-] [ABQ38, 3-amino-7-ethylbenzimidazo[3,2-a]quinolinium chloride]
[1]; 48 hours exposure
  IC50: 32 µM
[2]
  Caspases 3 and 7 activation: 51±1%
[3]
  capacity to bind to cellular organelles: bind to DNA and mitochondria
[4]
  auto fluorescence in cells: auto fluorescence

## Cc1ccc2sc3ccc4cc(N)c(Cl)cc4[n+]3c2c1.[Cl-] [ABQ95, 3-amino-2-chloro-10-methylbenzothiazolo[3,2-a]quinolinium chloride]
[1]; [5]
  IC50: 36 µM
[2]
  Caspases 3 and 7 activation: 46±6%
[3]
  capacity to bind to cellular organelles: bind to DNA and mitochondria

## N.N.[Cl][Pt][Cl] [Cisplatin, reference compound]
[2]
  Caspases 3 and 7 activation: 51±13%

## Cc1ccc2sc3ccc4cc([N+](=O)[O-])c(Cl)cc4[n+]3c2c1 [NBQ95, 2-Chloro-10-methyl-3-nitrobenzothiazolo[3,2-a]quinolinium chloride]
[1]; [5]
  IC50: 28 µM
